22 compounds from ChEMBL document CHEMBL3870317, “FtsZ inhibition and redox modulation with one chemical scaffold: Potential use of dihydroquinolines against mycobacteria” (Eur J Med Chem, 2016) can be followed below.

The structures appear in SMILES notation. pIC50, pKd: −log10 of the molar value. In brackets after ≈: the same amount, converted by molar mass. Activity calls are given as the source filed them.

The subject of test [1] is Mycolicibacterium smegmatis. The test can be described thus: Antimycobacterial activity against Mycobacterium smegmatis MC2 155 measured after 48 hrs by resazurin dye-based MABA method. The format is functional. The settings on record: str. MC2 155, 48 h.
Test [2] is described as follows: (§1) Inhibition of recombinant Mycobacterium tuberculosis FtsZ polymerization expressed in Escherichia coli assessed as inhibition of protofilament formation by measuring intensity of light scattering in presence of GTP by fluorescence spectrophotometry method. As to conditions: for pIC50: read-out: IC50.
Test [3] concerns Mycobacterium tuberculosis. Described as §1.
Test [4] in a line: (§2) Inhibition of recombinant Mycobacterium tuberculosis FtsZ GTPase activity expressed in Escherichia coli assessed as inorganic phosphate release measured after 15 mins in presence of GTP using malachite green dye by fluorescence spectrophotometry. As to conditions: for pIC50: read-out: IC50.
Test [5] has as its system Mycobacterium tuberculosis. The test is described as §2.
Test [6] relates to Mycobacterium tuberculosis. The experiment in a line: Inhibition of recombinant Mycobacterium tuberculosis FtsZ GTPase activity expressed in Escherichia coli assessed as inorganic phosphate release at 50 uM measured after 15 mins in presence of GTP using malachite green dye by fluorescence spectrophotometry relative to control.
Test [7] concerns Mycolicibacterium smegmatis MC2 155. The experiment in a line: Inhibition of recombinant Mycobacterium smegmatis MC2 155 FtsZ assessed as increase in cell length at 50 uM measured after 2 hrs by phase contrast microscopy relative to control.
Test [8] deals with T1, Cell division protein FtsZ (Bacillus subtilis (strain 168)) (UniProt P17865).
T1 sequence (whole entry): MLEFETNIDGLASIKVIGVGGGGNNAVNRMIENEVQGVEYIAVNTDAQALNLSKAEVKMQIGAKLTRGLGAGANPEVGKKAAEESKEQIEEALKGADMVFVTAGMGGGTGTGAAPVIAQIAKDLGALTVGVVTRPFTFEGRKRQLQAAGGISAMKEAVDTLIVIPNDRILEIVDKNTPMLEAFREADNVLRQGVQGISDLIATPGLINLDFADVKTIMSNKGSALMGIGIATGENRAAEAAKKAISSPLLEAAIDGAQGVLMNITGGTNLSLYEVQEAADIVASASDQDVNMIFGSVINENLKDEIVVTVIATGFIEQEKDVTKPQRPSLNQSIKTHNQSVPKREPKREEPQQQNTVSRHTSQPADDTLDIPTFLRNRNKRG
The test can be described thus: Inhibition of recombinant Bacillus subtilis 168 FtsZ assessed as increase in cell length at 50 uM measured after 2 hrs by phase contrast microscopy relative to control. The settings on record: Bacillus subtilis subsp. subtilis str. 168.

The subject of test [9] is Mycobacterium tuberculosis. The experiment in a line: Inhibition of recombinant Mycobacterium tuberculosis FtsZ expressed in Escherichia coli assessed as inhibition of protofilament formation by measuring intensity of light scattering at 400 nM up to 300 sec in presence of GTP by fluorescence spectrophotometry.
For test [10], the system named is Mycobacterium tuberculosis. The test can be described thus: Inhibition of Mycobacterium tuberculosis FtsZ polymerization at 50 uM measured after 1 hr by sodium tungstate staining based transmission electron microscopic method.
For test [11], the target named is T1, Cell division protein FtsZ (Bacillus subtilis (strain 168)). The experiment in a line: Binding affinity to Bacillus subtilis 168 FtsZ assessed as effect on Z-ring assembly at 100 uM by FITC-staining based immunofluorescence microscopic method. The settings on record: Bacillus subtilis subsp. subtilis str. 168.
For test [12], the system named is Mycobacterium tuberculosis. The test can be described thus: Displacement of ANS from recombinant Mycobacterium tuberculosis FtsZ expressed in Escherichia coli assessed as red shift at 20 to 140 uM after 30 mins by fluorescence analysis.
Test [13] in a line: Displacement of ANS from recombinant Mycobacterium tuberculosis FtsZ expressed in Escherichia coli by double reciprocal plot analysis.
A further test relates to Bacillus subtilis. The experiment in a line: Induction of ROS generation in Bacillus subtillis 168 assessed as DCF release at 25 to 50 uM measured after 1 hr by DCFH-DA based fluorescence microscopy. The test is classed as functional. The settings on record: subsp. subtilis str. 168.
Test [14] relates to Mycolicibacterium smegmatis. The experiment in a line: Induction of ROS generation in Mycobacterium smegmatis MC2 155 assessed as release of DCF at 25 to 50 uM measured after 1 hr by DCFH-DA based fluorescence spectrophotometry. The format is functional. As to conditions: str. MC2 155.
Test [15] deals with Mycobacterium tuberculosis. The test can be described thus: Inhibition of recombinant Mycobacterium tuberculosis FtsZ expressed in Escherichia coli assessed as inhibition of protofilament formation by measuring intensity of light scattering at 400 nM after 1000 sec in presence of GTP by fluorescence spectrophotometry.

One may read the MIC as the smallest concentration in the dilution series that meets the test's criterion for growth inhibition. A higher MIC goes with weaker potency. As a reminder, the pIC50 is the IC50 on a negative log10 scale, so that one unit is a factor of ten. The inhibition is the relative decrease from the control value, in per cent. Usually pKd stands for the negative decadic logarithm of the Kd, by convention in mol/L.

On to `CCN1CC(C(=O)OC)=Cc2cc(F)c(F)cc21`, for which the MIC in [1] was determined as 0.9 µg/mL (≈ 3.55 µM). Besides, the pIC50 in [2] is 3.68; in [4], 3.71. For the same compound, the inhibition result in [3] and in test [5] was “Dose-dependent effect” in each case.

As for `CCN(CC)CCN1CC(C(=O)OC)=Cc2cc([N+](=O)[O-])ccc21`, the MIC in test [1] stood at 7.5 µg/mL (≈ 22.5 µM). The values for the pIC50 in test [2] and in [4] were 4.47 and 4.42, respectively. Also, the inhibition result in test [3] and in test [5] was “Dose-dependent effect” each time.

Take `CC(C)(C)OC(=O)C1=Cc2cc([N+](=O)[O-])ccc2N(Cc2ccccc2)C1`: the minimal inhibitory concentration (MIC) in [1] came out at 7.5 µg/mL (≈ 20.5 µM). In addition, the pIC50 in test [2] and in test [4] was below 3.70 throughout.

In [1], `COC(=O)C1=Cc2cc([N+](=O)[O-])ccc2N(CCO)C1` returned an MIC of 3.9 µg/mL (≈ 14 µM). The pIC50 in test [2] was 4.40; in test [4], 4.38.

Consider `COC(=O)C1=Cc2cc([N+](=O)[O-])ccc2N(Cc2ccccc2)C1`, for which, in [1], the minimal inhibitory concentration (MIC) worked out at 31.5 µg/mL (≈ 97.1 µM). Also, the pIC50 in test [2] was 3.74; in test [4], 3.71.

Take `CC(C)c1c(O)ccc2c1CC[C@H]1C(C)(C)CCC[C@]21C`: in test [6], the inhibition fell in the range of 73 to 74%.

In test [1], `O=C(O)C1=Cc2cc([N+](=O)[O-])ccc2N(Cc2ccccc2)C1` came in with an MIC of 31.2 µg/mL (≈ 101 µM). Further, the pIC50 in [2] is 4.02; in test [4] it was 4.06.

With `CN[C@@H]1[C@H](O[C@H]2[C@H](O[C@H]3[C@H](O)[C@@H](O)[C@H](N=C(N)N)[C@@H](O)[C@@H]3N=C(N)N)O[C@@H](C)[C@]2(O)C=O)O[C@@H](CO)[C@H](O)[C@H]1O` [STREPTOMYCIN], the MIC in test [1] was found to be 3 µg/mL (≈ 5.16 µM).

In test [1], `COC(=O)C1=Cc2cc3ccccc3nc2N([C@@H](CO)C(=O)OC)C1` returned an MIC of 15 µg/mL (≈ 43.8 µM). Also, the negative-log IC50 (pIC50) in test [2] is 4.21; in [4], 4.18.

In test [1], `C[C@H](c1ccccc1)N1CC(C(=O)O)=Cc2cc([N+](=O)[O-])ccc21` showed an MIC of 7.5 µg/mL (≈ 23.1 µM). In addition, the results for the pIC50 in test [2] and in test [4] were 4.39 and 4.60, respectively. In addition, the inhibition entry in test [3] and in [5] was “Dose-dependent effect” throughout.

With `COC(=O)C1=Cc2cc([N+](=O)[O-])ccc2N([C@@H](C)C(=O)OC)C1`, the IC50 result in test [2] and in [4] was “Nd(Insoluble)” each time.

As to `CCN1CC(C(=O)OC)=Cc2cc([N+](=O)[O-])ccc21`, the IC50 entry in test [2] and in test [4] was “Nd(Insoluble)” throughout.

In [1], `CCCCN1CC(C(=O)OC)=Cc2cc([N+](=O)[O-])ccc21` registered an MIC of 7.5 µg/mL (≈ 25.8 µM). The pIC50 in test [2] and in test [4] was below 3.70 throughout.

On to `COCCCN1CC(C(=O)OC)=Cc2cc([N+](=O)[O-])ccc21`, for which the MIC in [1] came to 1.95 µg/mL (≈ 6.37 µM). Moreover, the pIC50 in test [2] and in test [4] was 4.05 in each case. Further, the inhibition result in test [3] and in [5] was “Dose-dependent effect” throughout.

In turn, `COC(=O)C1=Cc2cc([N+](=O)[O-])ccc2N([C@@H](CO)C(=O)OC)C1` returned an MIC in test [1] of 7.5 µg/mL (≈ 22.3 µM). Also, the fold change (FC) was found to be 4 in [7] and 6 in test [8]. Also, the inhibition entry in test [9], in test [10] and in [12] was “Active” in each case. The values for the pIC50 in [2] and in test [4] were 4.48 and 4.41, respectively. The inhibition result in [3], in test [5] and in test [15] was “Dose-dependent effect” each time. For the same compound, the outcome (in test [11]; with Bacillus subtilis; in [14]) was Active. The negative-log Kd (pKd) in [13] is 5.07.

In turn, `CC(=O)C1=Cc2cc([N+](=O)[O-])ccc2N(Cc2ccccc2)C1` registered an MIC in test [1] of 7.5 µg/mL (≈ 24.3 µM). Further, the pIC50 in [2] and in test [4] was below 3.70 each time.

In [1], `COC(=O)C1=Cc2cc([N+](=O)[O-])c(Cl)cc2N([C@@H](C)c2ccccc2)C1` came in with an MIC of 15 µg/mL (≈ 40.2 µM). For the same compound, the pIC50 in test [2] was 4.38; in test [4], 4.40. For the same compound, in [10], the inhibition result is “Active”.

In test [1], `CO[C@H]1/C=C/O[C@@]2(C)Oc3c(C)c(O)c4c(O)c(c(/C=N/N5CCN(C)CC5)c(O)c4c3C2=O)NC(=O)/C(C)=C\C=C\[C@H](C)[C@H](O)[C@@H](C)[C@@H](O)[C@@H](C)[C@H](OC(C)=O)[C@@H]1C` [RIFAMPIN] yielded a minimal inhibitory concentration (MIC) of 1.75 µg/mL (≈ 2.13 µM).

On to `COc1ccc2cc3[n+](cc2c1OC)CCc1cc2c(cc1-3)OCO2`, for which the inhibition in [6] lay within 79 to 80%.

`COC(=O)C1=Cc2cc([N+](=O)[O-])ccc2N(Cc2ccccn2)C1` displayed a minimal inhibitory concentration (MIC) in test [1] of 62.5 µg/mL (≈ 192 µM). For the same compound, the negative-log IC50 (pIC50) in [2] is 3.71; in [4], 3.73.

For the compound `COC(=O)C1=Cc2ccccc2N(S(=O)(=O)c2ccc(C)cc2)C1`, the IC50 entry in [2] and in [4] was “Nd(Insoluble)” throughout.

Consider `COC(=O)C1=Cc2cc([N+](=O)[O-])ccc2N(Cc2ccc3c(c2)OCO3)C1`, for which the MIC in test [1] amounted to 0.95 µg/mL (≈ 2.58 µM). For the same compound, the negative-log IC50 (pIC50) in test [2] and in test [4] was 4.11 throughout. In addition, the inhibition entry in test [3] and in test [5] was “Dose-dependent effect” each time.
